Values quoted from earlier work, collected in patent US20030013767A1, “Method of treating weight loss using creatine” (priority 2001, published 2003).

Key:
[1] = system: animal models of neurologic diseases, such as amyotrophic lateral sclerosis
gyrate atrophy = gyrate atrophy patients
[2] = system: severe deficiency of creatine in brain; settings: oral, ten to twelve months

In the case of `CN(CC(=O)O)C(=N)N` [creatine], the therapeutic outcome [1] is listed as “without success”, the “effect on periocular muscles” value (gyrate atrophy) is listed as “slight strengthening of the periocular muscles” and the “effect on the atrophy” value (gyrate atrophy) is listed as “no effect on the atrophy”. The toxicity ([2]; 4 grams/day (305-370 mg/kg/day) to 8 grams/day (600-740 mg/kg/day)) was “no report of toxicity” and the treatment outcome ([2]; 4 grams/day to 8 grams/day) was “some success”.
